Source: US20260265273A1, “SOLID FORM OF FUSED RING COMPOUND, AND PREPARATION METHOD THEREFOR AND USE THEREOF” (APPLIED PHARMACEUTICAL SCIENCE, INC., priority 2022, published 2026)

How the values were obtained:
[1] = Hygroscopicity test (DVS); type: physicochemical
Procedure: Dynamic vapor sorption (DVS) curves were acquired on a DVS Intrinsic in SMS (Surface Measurement Systems). The relative humidity at 25° C. was corrected with the deliquescence points of LiCl, Mg(NO3)2, and KCl.

[2] = Solid-state stability test (XRPD, HPLC purity); type: physicochemical
[3] = Solubility Test II (saturated solubility by HPLC); type: physicochemical; conditions: 37° C., 24 h
Procedure: Chromatographic column: Waters XTERRA RP18, 4.6 mm×150 mm, 3.5 μm or an equivalent chromatographic column. […] The gradient elution conditions are shown in Table 3-2. pH 4.5 acetate buffer: 0.59806 g of sodium acetate trihydrate was added to a 200-mL measuring flask and dissolved in an appropriate amount of water; 1.6 mL of glacial acetic acid was added; and the mixture was diluted to volume to obtain the pH 4.5 acetate buffer. pH 6.8 phosphate buffer: 1.38501 g of potassium dihydrogen phosphate and 0.18086 g of sodium hydroxide were added to the same 200-mL measuring flask; and the mixture was dissolved in water and diluted to volume to obtain the pH 6.8 phosphate buffer. 10.0 mL of each medium was precisely measured, and the media were placed into different 25-mL measuring flasks; an appropriate amount of each test crystal form was added; and the flasks were sealed and oscillated in an oscillator at 37° C. for 24 h to obtain supersaturated solutions. pH 6.8 phosphate buffer sample solution: the supersaturated solution prepared using the pH 6.8 phosphate buffer medium was filtered to obtain the pH 6.8 phosphate buffer sample solution. Water sample solution: the supersaturated solution prepared using the water medium was filtered to obtain the water sample solution. pH 4.5 acetate buffer sample solution: the supersaturated solution prepared using the pH 4.5 acetate buffer medium was filtered, and 1.0 mL of the filtrate was precisely measured and placed into a 10-mL measuring flask; the filtrate was diluted to volume with the pH 4.5 acetate buffer medium, and 1.0 mL of the solution was then precisely measured and placed into the 10-mL measuring flask; and the solution was diluted to volume with methanol to obtain the pH 4.5 acetate buffer sample solution. (ii) Preparation of crystal form A sample solution: pH 6.8 phosphate buffer sample solution: the supersaturated solution prepared using the pH 6.8 phosphate buffer medium was filtered to obtain the pH 6.8 phosphate buffer sample solution. Water sample solution: the supersaturated solution prepared using the water medium was filtered to obtain the water sample solution. pH 4.5 acetate buffer sample solution: the supersaturated solution prepared using the pH 4.5 acetate buffer medium was filtered, and 1.0 mL of the filtrate was precisely measured and placed into a 10-mL measuring flask; the filtrate was diluted to volume with the pH 4.5 acetate buffer medium, and 1.0 mL of the solution was then precisely measured and placed into a 25-mL measuring flask; and the solution was diluted to volume with methanol to obtain the pH 4.5 acetate buffer sample solution. Each medium sample solution was taken, 10 μL of each test sample solution was precisely measured and injected into a liquid chromatograph according to the chromatography conditions described above, and the chromatogram was recorded. The saturated solution degree of each medium was calculated according to the formula below. In the formula: WR=sample weight of control solution, mg; PR=purity factor of control; • AS=peak area of main peak in test solution: DS=dilution factor of test solution; • AR=peak area of main peak in control solution; DR=dilution factor of control solution;

[4] = Pharmacokinetic experiment in SD rats; type: in vivo; conditions: oral intragastric 10 mg/kg, 1 mg/mL in 5% DMSO in normal saline, compound I in plasma, 0.25-24 h
Procedure: Six SPF-grade SD rats were prepared and weighed before administration. The dose of administration was calculated based on the weight. […] These administration solutions were orally and intragastrically administered at 10 mg/kg. The rats were weighed before administration, and the dose of administration was calculated based on the weight. 3 rats were used for each crystal form. The administration solutions were orally and intragastrically administered, followed by collection of samples via the jugular vein or other suitable means at the following time points: 0.25 […], and 24 h. About 0.20 mL of each sample was collected, and the plasma was separated out by centrifugation within 2 h. The compound I was detected, and plasma drug concentration-time curves were plotted. The pharmacokinetic parameters were calculated by utilizing WinNonlin according to the plasma concentration data at different time points.

[5] = Crystal form change on drying or standing at room conditions; type: physicochemical
Procedure: 20 mg of the amorphous form Z prepared according to the method in Example 1 was weighed into a 3-mL vial. The solid was dissolved in 1.0-1.5 mL of solvent NMP (N-methylpyrrolidone), and the resulting mixture was filtered through a filter membrane to obtain a clear solution. About 4 mL of anti-solvent ACN was added to a 20-mL vial. The uncovered 3-mL vial containing the filtrate was placed into the 20-mL vial, and then the 20-mL vial was sealed and allowed to stand at room temperature. The solid was precipitated and collected to obtain the crystal form I. The X-ray powder diffraction pattern of this crystal form is shown in FIG. 9.
After drying in the air, the crystal form P was transformed to the anhydrous crystal form C. Thus, the crystal form P was determined to be a hydrate.

[6] = 1H-NMR analysis of salt crystal forms; type: physicochemical; conditions: DMSO-d6
Procedure: 1 g of the amorphous form Z prepared according to the method in Example 1 was weighed into a vial, and 14 mL of trichloromethane was added; the mixture was stirred at 35° C. for complete dissolution to obtain a solution 1; 102.64 mg of maleic acid was completely dissolved in 2 mL of ethanol to obtain a solution 2; 551 μL of the solution 2 was added to 0.7 mL of the solution 1 with stirring at room temperature, and no solid was precipitated; the mixture was stirred for 5 h and then placed at 4-8° C. overnight, and no solid was precipitated; 0.8 mL of methyl tert-butyl ether was added to obtain a turbid solution, and the turbid solution was stirred to obtain an oil; 0.4 mL of methyl tert-butyl ether was supplemented; and the mixture was successively stirred overnight, centrifuged, and dried in vacuum at 25° C. to obtain the crystal form T. The X-ray powder diffraction pattern of this crystal form is shown in FIG. 24A. […]

[7] = 25° C./60% RH/uncovered, 2 weeks
[8] = 25° C./60% RH/uncovered, 4 weeks
[9] = 25° C./60% RH/uncovered, 6 weeks
[10] = 40° C./75% RH/uncovered, 2 weeks
[11] = 40° C./75% RH/uncovered, 4 weeks
[12] = 40° C./75% RH/uncovered, 6 weeks
[13] = DVS, isothermal adsorption curve

## CCOc1cc(-c2ccc(N3CC4CC(C3)N4Cc3ccc(OC)nc3)nc2)c2c3cn[nH]c3nn2c1 (single isomer, unassigned) [Crystal form B]
[1]; DVS at 25° C., 0% RH-95% RH, according to Chinese Pharmacopoeia 2015 Edition
  hygroscopicity evaluation: slightly hygroscopic
[1]; DVS, 25° C./80% RH, listed as crystal form B
  hygroscopic weight gain: about 1.0%
[1]; after DVS test
  crystal form after the DVS test (XRPD): not changed
[2]; [7]
  Purity (area %): 99.96 area %
  Relative to initial purity (%): 100.01%
[2]; [8]
  Purity (area %): 99.96 area %
  Relative to initial purity (%): 100.01%
[2]; [9]
  Purity (area %): 99.96 area %
  Relative to initial purity (%): 100.01%
[2]; [10]
  Purity (area %): 99.96 area %
  Relative to initial purity (%): 100.01%
[2]; 40° C./75% RH/uncovered, 2 weeks, XRPD
  Crystal form change: No change
[2]; [11]
  Purity (area %): 99.96 area %
  Relative to initial purity (%): 100.01%
[2]; [12]
  Purity (area %): 99.96 area %
  Relative to initial purity (%): 100.01%
[2]; 60° C./sealed, 24 h
  Purity (area %): 99.97 area %
  Relative to initial purity (%): 100.01%
[2]; all stability conditions (60° C. sealed 24 h; 25° C./60% RH and 40° C./75% RH uncovered 2, 4, 6 weeks)
  HPLC purity under the test conditions: not significantly reduced
[2]; all stability conditions, XRPD
  crystal form under the test conditions: not changed
[3]; Water
  Saturated solubility: 0.34 µg/mL
[3]; pH 4.5 acetate buffer, listed as crystal form B
  Saturated solubility: 3107.54 µg/mL
[3]; pH 6.8 phosphate buffer
  Saturated solubility: 0.02 µg/mL
[4]
  AUC(0-t): 10424 ng·h/mL

## CCOc1cc(-c2ccc(N3CC4CC(C3)N4Cc3ccc(OC)nc3)nc2)c2c3cn[nH]c3nn2c1 [crystal form I]
[5]; drying at room temperature
  crystal form after drying: transformed to the crystal form A

## CCOc1cc(-c2ccc(N3CC4CC(C3)N4Cc3ccc(OC)nc3)nc2)c2c3cn[nH]c3nn2c1 [crystal form R]
[1]; [13]
  RH at which the form started to significantly absorb water and underwent polymorphic transition to hydrate crystal form S: 50 % RH

## CCOc1cc(-c2ccc(N3CC4CC(C3)N4Cc3ccc(OC)nc3)nc2)c2c3cn[nH]c3nn2c1 [crystal form Q]
[5]; placed at room temperature and room humidity
  crystal form after standing: transferred to the hydrate crystal form M

## CCOc1cc(-c2ccc(N3CC4CC(C3)N4Cc3ccc(OC)nc3)nc2)c2c3cn[nH]c3nn2c1 [crystal form S]
[1]; [13]
  RH at which the form started to dehydrate and underwent polymorphic transition to anhydrous crystal form R: 40 % RH

## CCOc1cc(-c2ccc(N3CC4CC(C3)N4Cc3ccc(OC)nc3)nc2)c2c3cn[nH]c3nn2c1 [crystal form P]
[5]; placed in the air for about 10 min
  crystal form of the wet sample after standing: transformation to the crystal form C

## CCOc1cc(-c2ccc(N3CC4CC(C3)N4Cc3ccc(OC)nc3)nc2)c2c3cn[nH]c3nn2c1 [crystal form T]
[6]
  stability in the 1H-NMR analysis: decomposition occurred
